These are literature values, as cited in US12226530B2, “Lenalidomide gastro-retentive sustained-release tablet and preparation method thereof” (DiQi Pharmaceuticals Co., Ltd., priority 2018, dated 2025).

Like-named read-outs stand apart in the source and are kept apart here.

Experiment in series [1]: not given
This is another data set of the same source.

For `Nc1cccc2c1CN(C1CCC(=O)NC1=O)C2=O` (centres unmarked) [lenalidomide], the Solubility entry runs as follows: (hydrochloric acid buffer with a pH of 1.2) “about 18 mg/ml”; (pH of solution medium greater than 4.6) “lower than 0.6 mg/ml”. Also, the Change of concentration entry in series [1] (solvent pH 1.2, 6 hours) is recorded as “unchanged”. Further, the Decrease of concentration in series [1] (solvent pH 4.5, 6 hours) is 6%; in series [1] (solvent pH 6.8, 6 hours), 16%.
